From publication PMC9032385, “A2A Adenosine Receptor Antagonists: Are Triazolotriazine and Purine Scaffolds Interchangeable?” (Molecules, 2022)

Legend:
human recombinant A1AR = target: T1, human recombinant A1AR (Homo sapiens, UniProt P30542); test: Radioligand binding at human A1AR ([3H]CCPA displacement, CHO cell membranes); conditions: displacement of [3H]CCPA, n = 3–5, means ± standard errors
T1 construct: expressed in transfected cells; membrane preparation
T1 sequence (P30542 1-326): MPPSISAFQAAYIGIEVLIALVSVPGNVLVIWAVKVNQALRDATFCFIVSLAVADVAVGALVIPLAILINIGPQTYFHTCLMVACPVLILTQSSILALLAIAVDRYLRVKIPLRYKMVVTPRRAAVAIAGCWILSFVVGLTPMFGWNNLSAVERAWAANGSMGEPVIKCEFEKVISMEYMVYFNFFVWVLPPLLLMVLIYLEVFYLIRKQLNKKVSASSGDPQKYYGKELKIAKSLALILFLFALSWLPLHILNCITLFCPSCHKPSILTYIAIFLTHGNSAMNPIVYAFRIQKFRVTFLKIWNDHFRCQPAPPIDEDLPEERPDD
Experimental: (§1) The affinities of the newly synthesized compounds 7–13 and 17–21 were determined in binding studies at human recombinant A1, A2A, and A3 ARs, stably transfected in Chinese hamster ovary (CHO) cells, using [^3H]CCPA (2-chloro-N^6-cyclopentylAdo), [^3H]NECA (5′-N-ethylcarboxamidoAdo), and [^3H]HEMADO (2-hexynyl-N^6-methylAdo) as respective radioligands. Most of the compounds were also evaluated at A2BARs in a functional study using the GloSensor cAMP assay. The results are reported in Table 1 as Ki values in nM (± standard errors). In the case of A2BARs, Ki-values were calculated from IC50-values determined by the inhibition of NECA-stimulated adenylyl cyclase activity.
(§2) Cell culture: The Chinese hamster ovary cells (CHO) stably transfected with the desired ARs were grown in DMEM/F12 medium containing 10% FBS (fetal bovine serum), 100 U/mL penicillin, 100 µg/mL streptomycin, 2.5 μg/mL amphotericin B, 1 mM sodium pyruvate, 0.1 mg/mL genetecina (G418), and incubated at 37 °C in a gaseous mixture of 5% CO2: […].
(§3) Preparation of membranes: Cell membranes for binding assays were prepared mechanically detaching the cells from the petri and suspending them in a cold hypotonic buffer (5 mM Tris/HCl, 2 mM EDTA, pH 7.4). The cell suspension was homogenized (Ultra-Turrax, 2 × 15 s at maximum speed) and the homogenate centrifuged for 10 min (4 °C) to 1000× g. The supernatant was subsequently centrifuged for 30 min (4 °C) at 100,000× g and the pellet containing the membrane proteins was re-suspended in a specific buffer for each receptor subtype (A1: 50 mM Tris/HCl, pH 7.4; A2A: 50 mM Tris/HCl, 10 mM MgCl2, pH 7.4; A3: 50 mM Tris/HCl, 10 mM MgCl2, 1 mM EDTA, pH 8.25). The amount of the protein suspension was determined according to the […] using the BCA Protein Assay Kit (Pierce), frozen in liquid nitrogen, and stored at −80 °C.
(§4) Binding assays: The dissociation constants of the radioligand (KD) were calculated through saturation assays, while the dissociation constants of the compounds under study (Ki) were determined by competition experiments. All binding data were calculated by nonlinear regression curves using the software GraphPad Prism 5 (GraphPad Software, San Diego, CA, USA). The increasing concentrations of the radioligand saturation binding ([^3H]-CCPA for the A1 receptor subtype, [^3H]-NECA for the A2A receptor subtype, and [^3H]-HEMADO for the A3 receptor) subtype were incubated in a total volume of 250 μL containing 0.2 U/mL of Ado deaminase (ADA) and 12 micrograms of membrane proteins in the specific buffer. In competition experiments for the A1 receptor subtype, each compound was added at increasing concentrations, to the well containing 1 nM of [^3H]-CCPA, to a final volume of 200 μL. The samples were left to incubate for 3 h at room temperature, filtered in a filter 96-well plate (UniFilter GF/C, Perkin-Elmer Life and Analytical Science, Boston, MA) using the FilterMate Cell Harvester (Perkin-Elmer), and washed 3 times with cold distilled water. After drying the filter plate at 40 °C for 30′, they 20 μL of scintillating liquid (Microscint-20, Perkin-Elmer) was added to each well, and then the radioactivity was quantized with the MicroBeta2 Plate Counter (Perkin-Elmer). The conditions for binding experiments at A2A and A3 receptor subtypes were essentially the same as for the A1AR using [^3H]-NECA (N-ethylcarboxyamideAdo) at a concentration of 10 nM and [^3H]-HEMADO (2-(1-hexyne)-N^6-methylAdo) at a concentration of 1 nM as radioligands, respectively. The samples were incubated with 12 micrograms of protein for 3 h at room temperature and filtered as described above.
(§5) The non-specific binding was determined in the presence of 1 mM theophylline for the A1AR, or 100 µM R-PIA (N^6-(1-methyl-2-phenylethyl)Ado) for the A2A and A3 receptors.

human recombinant A3AR = target: T2, human recombinant A3AR (Homo sapiens, UniProt P0DMS8); test: Radioligand binding at human A3AR ([3H]HEMADO displacement, CHO cell membranes); conditions: displacement of [3H]HEMADO, n = 3–5, means ± standard errors
T2 construct: expressed in transfected cells; membrane preparation
T2 sequence (P0DMS8 1-318): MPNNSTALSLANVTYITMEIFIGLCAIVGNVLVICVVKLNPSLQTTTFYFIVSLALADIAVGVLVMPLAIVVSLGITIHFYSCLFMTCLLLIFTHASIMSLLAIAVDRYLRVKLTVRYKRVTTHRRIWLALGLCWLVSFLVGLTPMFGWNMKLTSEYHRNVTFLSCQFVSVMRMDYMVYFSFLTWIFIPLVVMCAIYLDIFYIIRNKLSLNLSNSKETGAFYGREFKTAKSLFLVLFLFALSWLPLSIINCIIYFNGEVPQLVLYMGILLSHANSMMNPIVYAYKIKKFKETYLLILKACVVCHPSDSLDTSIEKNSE
Experimental: as §1, §2, §3, §4, §5

With `CCn1c(-c2ccco2)nc2c(N)nc(NCCc3ccc(O)cc3)nc21` [compound 13, 4-(2-((6-Amino-9-ethyl-8-(furan-2-yl)-9H-purin-2-yl)amino)ethyl)phenol] the Ki (human recombinant A1AR) was 0.051 µM and the Ki (human recombinant A3AR) was 0.012 µM.
